Among the data in patent publication US20080200454A1, “CARBON-LINKED TETRAHYDRO-PYRAZOLO-PYRIDINE MODULATORS OF CATHEPSIN S” (priority 2007, published 2008) are IC50 values, retold here.

Molecules are shown by their SMILES.

Recombinant human cathepsin S (CatS), sequence (P25774 115-331): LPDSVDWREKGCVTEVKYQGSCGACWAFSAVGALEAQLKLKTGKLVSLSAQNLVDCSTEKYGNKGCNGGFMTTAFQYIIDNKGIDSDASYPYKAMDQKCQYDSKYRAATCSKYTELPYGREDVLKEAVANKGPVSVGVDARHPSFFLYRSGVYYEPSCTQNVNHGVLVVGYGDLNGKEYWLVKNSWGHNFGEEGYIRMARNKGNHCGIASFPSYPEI

The first assay concerns the target Recombinant human cathepsin S (CatS) (Homo sapiens, UniProt P25774). The assay is described as follows: Recombinant human cathepsin S (CatS) inhibition assay, fluorogenic substrate Z-Valine-Valine-Arginine-AMC.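 Also: Baculovirus-expressed CatS in pH 5.0 sodium acetate buffer with DTT and NaCl, fluorescence read each minute over 20 min, inhibition derived from rate slope.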
Settings: not given
The term IC50 denotes the midpoint of a concentration-inhibition curve. For the compound `CS(=O)(=O)N1CCc2c(c(-c3ccc(Cl)c(C#Cc4ccc5c(c4)CNCC5)c3)nn2CCCN2CCC(C(N)=O)CC2)C1` [Example 135, 1-(3-{3-[4-Chloro-3-(1,2,3,4-tetrahydro-isoquinolin-7-ylethynyl)-phenyl]-5-methanesulfonyl-4,5,6,7-tetrahydro-pyrazolo[4,3-c]pyridin-1-yl}-propyl)-piperidine-4-carboxylic acid amide], the IC50 was 0.06 µM.
Regarding `COC(=O)C(=O)N1CCc2c(c(-c3ccc(Cl)c(C#Cc4ccc(Cl)cc4)c3)nn2CCCN2CCOCC2)C1` [Example 136, [3-[4-Chloro-3-(4-chloro-phenylethynyl)-phenyl]-1-(3-morpholin-4-yl-propyl)-1,4,6,7-tetrahydro-pyrazolo[4,3-c]pyridin-5-yl]-oxo-acetic acid methyl ester], the 50% inhibitory concentration (IC50) turned out to be 0.05 µM.
Take `NC(=O)N1CCc2c(c(-c3ccc(Cl)c(C#Cc4ccc(Cl)cc4)c3)nn2CCCN2CCOCC2)C1` [Example 144, 3-[4-Chloro-3-(4-chloro-phenylethynyl)-phenyl]-1-(3-morpholin-4-yl-propyl)-1,4,6,7-tetrahydro-pyrazolo[4,3-c]pyridine-5-carboxylic acid amide]: the half-maximal inhibitory concentration (IC50) was determined as 0.06 µM.
For `NC(=O)N1CCc2c(c(-c3ccc(Cl)c(CCc4ccc(Cl)cc4)c3)nn2CCCN2CCOCC2)C1` [Example 145, 3-{4-Chloro-3-[2-(4-chloro-phenyl)-ethyl]-phenyl}-1-(3-morpholin-4-yl-propyl)-1,4,6,7-tetrahydro-pyrazolo[4,3-c]pyridine-5-carboxylic acid amide], the IC50 came to 0.09 µM.
In the case of `CS(=O)(=O)N1CCc2c(c(-c3ccc(C(F)(F)F)c(CCc4ccc(Cl)cc4)c3)nn2CC(O)CN2CCC(N3CCCC3=O)CC2)C1` (centres unmarked) [Example 146, 1-{1-[3-(3-{3-[2-(4-Chloro-phenyl)-ethyl]-4-trifluoromethyl-phenyl}-5-methanesulfonyl-4,5,6,7-tetrahydro-pyrazolo[4,3-c]pyridin-1-yl)-2-hydroxy-propyl]-piperidin-4-yl}-pyrrolidin-2-one], the half-maximal inhibitory concentration (IC50) amounted to 0.06 µM.
As for `CS(=O)(=O)N1CCc2c(c(-c3ccc(C(F)(F)F)c(CCc4ccc(Cl)cc4)c3)nn2CC(O)CN2CCOCC2)C1` (centres unmarked) [Example 147, 1-(3-{3-[2-(4-Chloro-phenyl)-ethyl]-4-trifluoromethyl-phenyl}-5-methanesulfonyl-4,5,6,7-tetrahydro-pyrazolo[4,3-c]pyridin-1-yl)-3-morpholin-4-yl-propan-2-ol], the IC50 was determined as 0.41 µM.
`CS(=O)(=O)N1CCc2c(c(-c3ccc(Cl)c(CCc4ccc(Cl)cc4)c3)nn2CC(O)CN2CCC3(CCNC3=O)CC2)C1` (centres unmarked) [Example 148, 8-[3-(3-{4-Chloro-3-[2-(4-chloro-phenyl)-ethyl]-phenyl}-5-methanesulfonyl-4,5,6,7-tetrahydro-pyrazolo[4,3-c]pyridin-1-yl)-2-hydroxy-propyl]-2,8-diaza-spiro[4.5]decan-1-one]: the IC50 was 0.08 µM.
Regarding `CS(=O)(=O)N1CCc2c(c(-c3ccc(Cl)c(CCc4ccc(Cl)cc4)c3)nn2CC(O)CN2CCOCC2)C1` (centres unmarked) [Example 149, 1-(3-{4-Chloro-3-[2-(4-chloro-phenyl)-ethyl]-phenyl}-5-methanesulfonyl-4,5,6,7-tetrahydro-pyrazolo[4,3-c]pyridin-1-yl)-3-morpholin-4-yl-propan-2-ol], the IC50 was determined as 0.11 µM.
Turning to `NC(=O)C(=O)N1CCc2c(c(-c3ccc(Cl)c(C#Cc4ccc(CNCc5ccc(Cl)cc5)cc4)c3)nn2CCCN2CCOCC2)C1` [Example 150, 2-[3-(4-Chloro-3-{[4-({[(4-chlorophenyl)methyl]amino}methyl)phenyl]ethynyl}phenyl)-1-(3-morpholin-4-ylpropyl)-1,4,6,7-tetrahydro-5H-pyrazolo[4,3-c]pyridin-5-yl]-2-oxoacetamide], the 50% inhibitory concentration (IC50) was determined as 0.08 µM.
On the same count and under the same terms, the same measure for `NC(=O)N1CCc2c(c(-c3ccc(Cl)c(C#Cc4ccc(CNCc5ccc(Cl)cc5)cc4)c3)nn2CCCN2CCOCC2)C1` [Example 151, 3-(4-Chloro-3-{[4-({[(4-chlorophenyl)methyl]amino}methyl)phenyl]ethynyl}phenyl)-1-(3-morpholin-4-ylpropyl)-1,4,6,7-tetrahydro-5H-pyrazolo[4,3-c]pyridine-5-carboxamide]: 0.09 µM; for `CN(C)C(=O)C(=O)N1CCc2c(c(-c3ccc(Cl)c(C#Cc4ccc(CNCc5ccc(Cl)cc5)cc4)c3)nn2CCCN2CCOCC2)C1` [Example 152, 2-[3-(4-Chloro-3-{[4-({[(4-chlorophenyl)methyl]amino}methyl)phenyl]ethynyl}phenyl)-1-(3-morpholin-4-ylpropyl)-1,4,6,7-tetrahydro-5H-pyrazolo[4,3-c]pyridin-5-yl]-N,N-dimethyl-2-oxoacetamide]: 0.11 µM.

The assay is the same for the next values; noted with them: CatS IC50.
Turning to `O=C(c1ccccn1)N1CCc2c(c(-c3ccc(Cl)c(C#Cc4ccc(Cl)cc4)c3)nn2CCCN2CCOCC2)C1` [Example 137, [3-[4-Chloro-3-(4-chloro-phenylethynyl)-phenyl]-1-(3-morpholin-4-yl-propyl)-1,4,6,7-tetrahydro-pyrazolo[4,3-c]pyridin-5-yl]-pyridin-2-yl-methanone], the half-maximal inhibitory concentration (IC50) came out at 0.14 µM.
Regarding `O=C(C1CCCO1)N1CCc2c(c(-c3ccc(Cl)c(C#Cc4ccc(Cl)cc4)c3)nn2CCCN2CCOCC2)C1` (centres unmarked) [Example 141, [3-[4-Chloro-3-(4-chloro-phenylethynyl)-phenyl]-1-(3-morpholin-4-yl-propyl)-1,4,6,7-tetrahydro-pyrazolo[4,3-c]pyridin-5-yl]-(tetrahydro-furan-2-yl)-methanone], the 50% inhibitory concentration (IC50) amounted to 0.31 µM.
For the compound `CC(=O)OCC(=O)N1CCc2c(c(-c3ccc(Cl)c(C#Cc4ccc(Cl)cc4)c3)nn2CCCN2CCOCC2)C1` [Example 142, Acetic acid 2-[3-[4-chloro-3-(4-chloro-phenylethynyl)-phenyl]-1-(3-morpholin-4-yl-propyl)-1,4,6,7-tetrahydro-pyrazolo[4,3-c]pyridin-5-yl]-2-oxo-ethyl ester], the IC50 was 0.28 µM.

Staying with this assay, now noted: CatS IC50, Table 2; average of results obtained.
Take `O=C(c1ccco1)N1CCc2c(c(-c3ccc(Cl)c(C#Cc4ccc(Cl)cc4)c3)nn2CCCN2CCOCC2)C1` [Example 138, [3-[4-Chloro-3-(4-chloro-phenylethynyl)-phenyl]-1-(3-morpholin-4-yl-propyl)-1,4,6,7-tetrahydro-pyrazolo[4,3-c]pyridin-5-yl]-furan-2-yl-methanone]: the IC50 is 0.35 µM.
For the compound `O=C(N1CCc2c(c(-c3ccc(Cl)c(C#Cc4ccc(Cl)cc4)c3)nn2CCCN2CCOCC2)C1)C(F)(F)F` [Example 139, 1-[3-[4-Chloro-3-(4-chloro-phenylethynyl)-phenyl]-1-(3-morpholin-4-yl-propyl)-1,4,6,7-tetrahydro-pyrazolo[4,3-c]pyridin-5-yl]-2,2,2-trifluoro-ethanone], the IC50 worked out at 0.23 µM.
Consider `O=C(CF)N1CCc2c(c(-c3ccc(Cl)c(C#Cc4ccc(Cl)cc4)c3)nn2CCCN2CCOCC2)C1` [Example 140, 1-[3-[4-Chloro-3-(4-chloro-phenylethynyl)-phenyl]-1-(3-morpholin-4-yl-propyl)-1,4,6,7-tetrahydro-pyrazolo[4,3-c]pyridin-5-yl]-2-fluoro-ethanone], for which the half-inhibitory concentration (IC50) was found to be 0.25 µM.
